Source: patent publication US11345956B2, “Methods and compositions related to prostate cancer therapeutics” (The Johns Hopkins University, priority 2014, dated 2022)
Read-outs that look alike come from different tables or passages of the source.

System: metastatic castration-resistant prostate cancer (CRPC)
Settings: for median overall survival (OS): preliminary survival analysis; for PSA response rate (≥50% PSA decline from baseline, maintained ≥4 weeks): all patients of the cohort; for HR for PFS, AR-V7 presence / HR for PSA-PFS, AR-V7 presence: multivariable Cox model adjusting for AR-FL expression and prior use of the alternative AR-directed agent; for HR for PFS, AR-FL levels / HR for PSA-PFS, AR-FL levels / HR for PFS, previous use of alternative AR-directed agent / HR for PSA-PFS, previous use of alternative AR-directed agent: multivariable Cox model; for HR for PFS, AR-FL levels / HR for PSA-PFS, AR-FL levels: covariate AR-FL level; for HR for PFS, previous use of alternative AR-directed agent / HR for PSA-PFS, previous use of alternative AR-directed agent: previous abiraterone (enzalutamide cohort) or previous enzalutamide (abiraterone cohort); for Hazard Ratio (HR) for PFS, variable AR-FL Level (log) / Hazard Ratio (HR) for PFS, variable AR-V7 Positive / Hazard Ratio (HR) for PFS, variable Prior use of Abiraterone / Hazard Ratio (HR) for PSA-PFS, variable AR-FL Level (log) / Hazard Ratio (HR) for PSA-PFS, variable AR-V7 Positive / Hazard Ratio (HR) for PSA-PFS, variable Prior use of Abiraterone: propensity score weighted multivariable model; for hazard ratio (HR) for OS, AR-V7-positive vs AR-V7-negative / hazard ratio (HR) for PFS, AR-V7-positive vs AR-V7-negative / hazard ratio (HR) for PSA-PFS, AR-V7-positive vs AR-V7-negative: univariate, log-rank
[1] = AR-V7-negative patients (baseline CTCs)
[2] = AR-V7-positive patients (baseline CTCs)
[3] = no previous alternative AR-directed agent (abiraterone/enzalutamide)
[4] = no previous alternative AR-directed agent (abiraterone/enzalutamide), AR-V7 [+]
[5] = no previous alternative AR-directed agent (abiraterone/enzalutamide), AR-V7 [−]
[6] = previous alternative AR-directed agent (abiraterone/enzalutamide), AR-V7 [+]
[7] = previous alternative AR-directed agent (abiraterone/enzalutamide), AR-V7 [−]
[8] = previous alternative AR-directed agent (abiraterone/enzalutamide)

Protocol: Men with metastatic CRPC who were beginning standard-of-care treatment with enzalutamide or abiraterone were prospectively enrolled. Patients were required to have histologically-confirmed prostate adenocarcinoma, progressive disease despite “castration levels” of serum testosterone (<50 ng/dL; and androgen-deprivation therapy had to continue), and radiographic metastases on computed tomography (CT) or technetium-99 bone scans. […] Patients were excluded if they planned to receive additional concurrent anticancer therapies. Prior chemotherapy was permitted, as was previous treatment with the alternative AR-directed agent (i.e. prior abiraterone use in enzalutamide-treated patients, and vice versa).
This was a prospective study evaluating the ability of baseline (pretreatment) AR-V7 status from CTCs (circulating tumor cells) to predict response or resistance to AR-directed agents.
Follow-up was prospectively defined: patients had PSA measurements every 1-2 months, as well as CT (chest/abdomen/pelvis) and technetium-99 bone scans every 2-4 months.
CTC analyses were conducted using the commercially-available ALERE™ CTC AdnaTest platform (AdnaGen, Langenhagen, Germany). Isolation and enrichment of CTCs was performed using the ProstateCancerSelect kit, and mRNA expression analyses were performed using the ProstateCancerDetect kit with multiplexed reverse-transcription polymerase-chain-reaction (qRT-PCR) primers to detect the presence of CTCs, and custom primers designed to detect the full-length-AR (AR-FL) and AR splice variant-7 (AR-V7) (Hu, R., et al. (2009) Cancer Res 69, 16-22). Relative AR-V7 transcript abundance was determined by calculating the ratio of AR-V7 to AR-FL (Hu, R., et al. (2009) Cancer Res 69, 16-22; Watson, P. A., et al. (2010) Proceedings of the National Academy of Sciences).
Best PSA response (maximal percentage PSA decrease from baseline) for each patient was also determined.
Secondary endpoints included freedom-from-PSA-progression (PSA-progression-free-survival; PSA-PFS), freedom-from-clinical/radiographic-progression (progression-free-survival; PFS), and overall survival (OS). PSA-progression was defined as a ≥25% increase in PSA from nadir (and by ≥2 ng/mL), requiring confirmation ≥4 weeks later (PCWG2 criteria) (Scher, H. I., et al. (2008) Journal of Clinical Oncology: Oficial Journal of the American Society of Clinical Oncology 26, 1148-1159).

SMILES	median PSA-progression-free survival (PSA-PFS) (AR-V7-negative patients) [months]	median clinical/radiographic progression-free survival (PFS) (AR-V7-negative patients) [months]	PSA response rate (≥50% PSA decline from baseline) [1] [%]	median overall survival (OS) (AR-V7-negative patients)	median PSA-progression-free survival (PSA-PFS) (AR-V7-positive patients) [months]	median clinical/radiographic progression-free survival (PFS) (AR-V7-positive patients) [months]	PSA response rate (≥50% PSA decline from baseline) [2] [%]	median overall survival (OS) (AR-V7-positive patients) [months]	PSA response rate (≥50% PSA decline from baseline, maintained ≥4 weeks) [%]	HR for PFS, AR-V7 presence	HR for PSA-PFS, AR-V7 presence	HR for PFS, AR-FL levels	HR for PSA-PFS, AR-FL levels	HR for PFS, previous use of alternative AR-directed agent	HR for PSA-PFS, previous use of alternative AR-directed agent	PSA Response [4] [%]	PSA Response [5] [%]	PSA Response [6] [%]	PSA Response [7] [%]	Hazard Ratio (HR) for PFS, variable AR-FL Level (log)	other results
C[C@]12CC[C@H](O)CC1=CC[C@@H]1[C@@H]2CC[C@]2(C)C(c3cccnc3)=CC[C@@H]12 [abiraterone]	> 5.3	> 6.3	68.0	> 11.9 months	1.3	2.3	0	10.6	54.8	7.6	15.7	1.1	1.0	1.9	0.9	0	74	0	0	1.36	PFA-PFS HR, AR-V7 [+] vs [−] [3]: HR 41.0; PFS HR, AR-V7 [+] vs [−] [3]: HR 28.2; Hazard Ratio (HR) for PFS, variable AR-V7 Positive: 5.25; Hazard Ratio (HR) for PFS, variable Prior use of Abiraterone: 1.72; Hazard Ratio (HR) for PSA-PFS, variable AR-FL Level (log): 1.05; Hazard Ratio (HR) for PSA-PFS, variable AR-V7 Positive: 17.51; Hazard Ratio (HR) for PSA-PFS, variable Prior use of Abiraterone: 0.61; hazard ratio (HR) for OS, AR-V7-positive vs AR-V7-negative: 12.7; hazard ratio (HR) for PFS, AR-V7-positive vs AR-V7-negative: 16.5; hazard ratio (HR) for PSA-PFS, AR-V7-positive vs AR-V7-negative: 16.1
CNC(=O)c1ccc(N2C(=S)N(c3ccc(C#N)c(C(F)(F)F)c3)C(=O)C2(C)C)cc1F [enzalutamide]	6.0	6.1	52.6	not reached	1.4	2.1	0	5.5	32.3	3.0	3.1	1.7	1.4	2.6	2.5	0	80	0	22	1.64	PFA-PFS HR, AR-V7 [+] vs [−] [8]: HR 3.34; PFS HR, AR-V7 [+] vs [−] [8]: HR 2.93; Hazard Ratio (HR) for PFS, variable AR-V7 Positive: 3.38; Hazard Ratio (HR) for PFS, variable Prior use of Abiraterone: 1.54; Hazard Ratio (HR) for PSA-PFS, variable AR-FL Level (log): 1.33; Hazard Ratio (HR) for PSA-PFS, variable AR-V7 Positive: 3.40; Hazard Ratio (HR) for PSA-PFS, variable Prior use of Abiraterone: 2.66; hazard ratio (HR) for OS, AR-V7-positive vs AR-V7-negative: 6.9; hazard ratio (HR) for PFS, AR-V7-positive vs AR-V7-negative: 8.5; hazard ratio (HR) for PSA-PFS, AR-V7-positive vs AR-V7-negative: 7.4
